{"source": "patent EP4436582B1", "about": "“2-METHOXYESTRADIOL FOR USE IN THE TREATMENT OF MASTOCYTOSIS” (Gdanski Uniwersytet Medyczny, priority 2021, dated 2023)", "key": {"[1]": {"tested_on": "HMC 1.1 line (containing the p.V560G mutation)", "method": "(§1) Used in the research were four mastocyte cell lines: • HMC-1.1 containing the pV560G KIT gene mutation; • HMC-1.2 containing the pG560V and pD816V KIT gene mutations, • ROSA KIT D816V containing the pD816V KIT mutation; • ROSA KIT WT - line containing no KIT mutation [21-23].\n(§2) The culture was grown in a cell incubator at the temperature of 37 °C and at 5% CO2 content, in sterile conditions in a chamber with laminar flow of sterile air. Used was Iscove's Modified Dulbecco's Medium (Merck Millipore) supplemented with 1.2 mM of α-thioglycerol, 50 mL of Foetal Bovine Serum (ATCC), and 5 mL of antibiotics (PEN./STREP. 100x, Merck Millipore)\n(§3) The cells were grown for 48 hours on a 96-well plate at the concentrations 5 ×10^4 cells per well for the HMC 1.1. and HMC 1.2 lines, respectively, and at the concentration of 7.5 ×10^4 cells per well for the ROSA KIT D816V and ROSA KIT WT lines.\n(§4) Then, the working 2-ME solution was diluted in 100 µL of DMSO so as to obtain the final solution concentrations of 1, 5, and 10 in 100 µL of DMSO, respectively.\n(§5) The control were cells treated with the corresponding amounts of DMSO with no 2-ME added.\n(§6) Following 48 hours into incubation, each well was added 50 µL of the XTT solution (Roche Diagnostics GmbH, Mannheim, Germany) prepared in accordance with the manufacturer's instructions. After 4 hours of cell incubation with XTT the level of absorbance was read using the Cytation 3 Imaging Reader (BioTek, USA) at the wavelength of 560 nm."}, "[2]": {"tested_on": "ROSA KIT WT line (without KIT gene mutation)", "method": "as §1\n(§7) The culture was grown in a cell incubator at the temperature of 37 °C and at 5% CO2 content. […] Used to grow the culture was Iscove's Modified Dulbecco's Medium (Merck Millipore) added with 50 mL of Foetal Bovine Serum (ATCC), and 5 mL of antibiotics (PEN./STREP. 100x, Merck Millipore), while the medium used for the ROSA KIT WT line was additionally supplemented with bone marrow stem cell growth factor rhSCF (R&D Systems, Minneapolis, USA) in the final concentration of 80 ng/ml.\nas §3, §4, §5, §6"}, "[3]": {"tested_on": "HMC 1.1 line (containing the p.V560G mutation)", "experiment": "cells", "settings": "Homo sapiens, 48 h", "method": "as §1, §2, §3, §4, §5, §6"}, "[4]": {"tested_on": "ROSA KIT WT line (without KIT gene mutation)", "experiment": "cells", "settings": "48 h, read-out: inhibited the cell growth by", "method": "as §1, §7, §3, §4, §5, §6"}}}
{"smiles": "COc1cc2c(cc1O)CC[C@@H]1[C@@H]2CC[C@]2(C)[C@@H](O)CC[C@@H]12", "note": "[2-ME, 2-methoxyestradiol]", "values": [{"measurement": "cytotoxicity to neoplastic MCs", "setting": "[1]", "value": "selectively cytotoxic"}, {"measurement": "cytotoxicity to regular MCs", "setting": "[2]", "value": "did not demonstrate any such activity"}, {"measurement": "viability at 5 µM", "setting": "[3]; read-out: cell viability, HMC 1.1 line, 5 µM, 48 hours, remaining viability vs DMSO control", "value": 63, "unit": "%"}, {"measurement": "viability at 10 µM", "setting": "[3]; read-out: cell viability, HMC 1.1 line, 10 µM, 48 hours, remaining viability vs DMSO control", "value": 67, "unit": "%"}, {"measurement": "inhibition at 1 µM", "setting": "[3]; read-out: reduced proliferation of cells by", "value": 29, "unit": "%"}, {"measurement": "viability at 1 µM", "setting": "[3]; read-out: viability of the cells, HMC 1.1 line, 1 µM, 48 hours, remaining viability vs DMSO control", "value": 71, "unit": "%"}, {"measurement": "inhibition at 1 µM", "setting": "[4]", "value": 5, "unit": "%"}, {"measurement": "inhibition at 5 µM", "setting": "[4]", "value": 12, "unit": "%"}, {"measurement": "inhibition at 10 µM", "setting": "[4]", "value": 14, "unit": "%"}]}
